# PubChem BioAssay (NCI)
#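 Assay format: 96-well plates, 48-hour exposure. TGI denotes the concentration required for complete inhibition of growth.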
# How the values were obtained:
# Assay in all cases: NCI tumour cell line growth inhibition, 48 h
# SK-MEL-28 melanoma = test system: SK-MEL-28 melanoma
# MCF7 breast = test system: MCF7 breast
# HOP-62 NSCLC = test system: HOP-62 NSCLC
# UO-31 renal = test system: UO-31 renal
# 786-0 renal = test system: 786-0 renal
# A549 NSCLC = test system: A549 NSCLC
# BT-549 breast = test system: BT-549 breast
# M14 melanoma = test system: M14 melanoma
# A498 renal = test system: A498 renal
# HS 578T breast = test system: HS 578T breast
# MDA-MB-231 breast = test system: MDA-MB-231 breast
# UACC-257 melanoma = test system: UACC-257 melanoma
# MOLT-4 leukemia = test system: MOLT-4 leukemia
# SK-MEL-2 melanoma = test system: SK-MEL-2 melanoma
# SK-OV-3 ovarian = test system: SK-OV-3 ovarian
# COLO 205 colon = test system: COLO 205 colon
# SW-620 colon = test system: SW-620 colon
# EKVX NSCLC = test system: EKVX NSCLC
# OVCAR-5 ovarian = test system: OVCAR-5 ovarian
# CAKI-1 renal = test system: CAKI-1 renal
# NCI-H226 lung = test system: NCI-H226 lung
# NCI/ADR-RES ovarian = test system: NCI/ADR-RES ovarian
# MALME-3M melanoma = test system: MALME-3M melanoma
# LOX IMVI melanoma = test system: LOX IMVI melanoma
# SR leukemia = test system: SR leukemia
# HCT-116 colon = test system: HCT-116 colon
# SNB-75 CNS = test system: SNB-75 CNS
# TK-10 renal = test system: TK-10 renal
# DU-145 prostate = test system: DU-145 prostate
# UACC-62 melanoma = test system: UACC-62 melanoma
# OVCAR-8 ovarian = test system: OVCAR-8 ovarian
# IGROV1 ovarian = test system: IGROV1 ovarian
# OVCAR-4 ovarian = test system: OVCAR-4 ovarian
# T-47D breast = test system: T-47D breast
# OVCAR-3 ovarian = test system: OVCAR-3 ovarian
# SF-539 CNS = test system: SF-539 CNS
# SNB-19 CNS = test system: SNB-19 CNS
# K-562 leukemia = test system: K-562 leukemia
# NCI-H460 lung = test system: NCI-H460 lung
# HT29 colon = test system: HT29 colon
# ACHN renal = test system: ACHN renal
# SF-295 CNS = test system: SF-295 CNS
# MDA-MB-435 = test system: MDA-MB-435
# HCT-15 colon = test system: HCT-15 colon
# HOP-92 NSCLC = test system: HOP-92 NSCLC
# CCRF-CEM leukemia = test system: CCRF-CEM leukemia
# PC-3 prostate = test system: PC-3 prostate
# SK-MEL-5 melanoma = test system: SK-MEL-5 melanoma
# U251 CNS = test system: U251 CNS
# SN12C renal = test system: SN12C renal
# NCI-H23 lung = test system: NCI-H23 lung
# MDA-N = test system: MDA-N
# KM12 colon = test system: KM12 colon
# HCC-2998 colon = test system: HCC-2998 colon
# HL-60(TB) leukemia = test system: HL-60(TB) leukemia
structure (smiles),measurement,setting,value
Cc1ccc(Cc2nc(=S)[nH][nH]2)cc1,TGI,SK-MEL-28 melanoma,> 100 µM
same,TGI,MCF7 breast,> 100 µM
same,TGI,HOP-62 NSCLC,> 100 µM
same,TGI,UO-31 renal,> 100 µM
same,TGI,786-0 renal,> 100 µM
same,TGI,A549 NSCLC,> 100 µM
same,TGI,BT-549 breast,> 100 µM
same,TGI,M14 melanoma,> 100 µM
same,TGI,A498 renal,> 100 µM
same,TGI,HS 578T breast,> 100 µM
same,TGI,MDA-MB-231 breast,> 100 µM
same,TGI,UACC-257 melanoma,> 100 µM
same,TGI,MOLT-4 leukemia,> 100 µM
same,TGI,SK-MEL-2 melanoma,> 100 µM
same,TGI,SK-OV-3 ovarian,> 100 µM
same,TGI,COLO 205 colon,> 100 µM
same,TGI,SW-620 colon,> 100 µM
same,TGI,EKVX NSCLC,> 100 µM
same,TGI,OVCAR-5 ovarian,> 100 µM
same,TGI,CAKI-1 renal,> 100 µM
same,TGI,NCI-H226 lung,> 100 µM
same,TGI,NCI/ADR-RES ovarian,> 100 µM
same,TGI,MALME-3M melanoma,> 100 µM
same,TGI,LOX IMVI melanoma,> 100 µM
same,TGI,SR leukemia,> 100 µM
same,TGI,HCT-116 colon,> 100 µM
same,TGI,SNB-75 CNS,> 100 µM
same,TGI,TK-10 renal,> 100 µM
same,TGI,DU-145 prostate,> 100 µM
same,TGI,UACC-62 melanoma,> 100 µM
same,TGI,OVCAR-8 ovarian,> 100 µM
same,TGI,IGROV1 ovarian,> 100 µM
same,TGI,OVCAR-4 ovarian,96.5 µM
same,TGI,T-47D breast,> 100 µM
same,TGI,OVCAR-3 ovarian,> 100 µM
same,TGI,SF-539 CNS,> 100 µM
same,TGI,SNB-19 CNS,> 100 µM
same,TGI,K-562 leukemia,> 100 µM
same,TGI,NCI-H460 lung,> 100 µM
same,TGI,HT29 colon,> 100 µM
same,TGI,ACHN renal,> 100 µM
same,TGI,SF-295 CNS,> 100 µM
same,TGI,MDA-MB-435,> 100 µM
same,TGI,HCT-15 colon,> 100 µM
same,TGI,HOP-92 NSCLC,> 100 µM
same,TGI,CCRF-CEM leukemia,> 100 µM
same,TGI,PC-3 prostate,> 100 µM
same,TGI,SK-MEL-5 melanoma,> 100 µM
same,TGI,U251 CNS,> 100 µM
same,TGI,SN12C renal,> 100 µM
same,TGI,NCI-H23 lung,> 100 µM
same,TGI,MDA-N,> 100 µM
same,TGI,KM12 colon,> 100 µM
same,TGI,HCC-2998 colon,> 100 µM
same,TGI,HL-60(TB) leukemia,97.9 µM
